Assay results as given in patent publication US12139492B2 (Endotarget Inc., priority 2021, dated 2024).
Where two headings read alike, the source gives them in different places.

What was measured:
Mino cells = experiment: Antiproliferative effect, MTS cell viability assay, Mino cells; assay type: cell-based; settings: Homo sapiens, MINO, Mino mantle cell lymphoma cells; read-out: IC50 (anti-proliferation) Mino cells
Procedure, shortened: (§1)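 Mino and JeKo-1 mantle B-cell lymphoma lines were exposed to compound at 0, 0.001, 0.01, 0.1, 1 and 10 μM for 72 h. Viability was read by MTS reduction to formazan, measured as absorbance at 490 nm.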

JeKo-1 cells = experiment: Antiproliferative effect, MTS cell viability assay, JeKo-1 cells; assay type: cell-based; settings: Homo sapiens; JeKo-1 mantle cell lymphoma cells; read-out: IC50 (anti-proliferation) JeKO-1 cells
Procedure, shortened: as §1

BTK = BTK (Homo sapiens, UniProt Q06187); experiment: Degradation of BTK protein in Namalwa cells (Western blot; DC50, Dmax); settings: for DC50: cell line not given
[1] = read-out: DC50 (BTK degradation), concentration giving 50% reduction of BTK expression level
[2] = read-out: Dmax (BTK degradation)

BTK, sequence (Q06187 whole entry): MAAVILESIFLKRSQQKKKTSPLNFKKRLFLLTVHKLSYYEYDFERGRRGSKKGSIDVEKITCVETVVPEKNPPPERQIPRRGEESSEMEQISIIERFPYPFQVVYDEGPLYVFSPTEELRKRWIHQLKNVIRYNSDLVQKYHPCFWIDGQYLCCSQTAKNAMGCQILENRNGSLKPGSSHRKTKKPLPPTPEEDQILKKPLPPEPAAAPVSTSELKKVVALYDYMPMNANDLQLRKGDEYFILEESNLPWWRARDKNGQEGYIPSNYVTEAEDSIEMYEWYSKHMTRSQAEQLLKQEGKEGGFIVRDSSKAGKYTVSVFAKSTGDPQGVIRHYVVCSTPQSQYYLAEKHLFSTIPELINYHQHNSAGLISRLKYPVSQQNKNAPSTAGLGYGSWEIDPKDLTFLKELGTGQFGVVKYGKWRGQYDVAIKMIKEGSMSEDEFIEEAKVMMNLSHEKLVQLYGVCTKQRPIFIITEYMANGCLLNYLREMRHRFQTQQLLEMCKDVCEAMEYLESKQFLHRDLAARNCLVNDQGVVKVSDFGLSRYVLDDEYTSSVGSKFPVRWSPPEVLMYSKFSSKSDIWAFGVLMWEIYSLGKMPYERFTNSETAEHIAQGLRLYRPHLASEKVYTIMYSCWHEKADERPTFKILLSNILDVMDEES

Structure (SMILES) | DC50 (BTK; [1]) [µM] | Dmax (BTK; [2]) [%] | Dmax (BTK) [%] | DC50 (BTK; BTK degradation) [µM] | IC50 (Mino cells) [µM] | IC50 (JeKo-1 cells) [µM]
NC(=O)c1c(-c2ccc(Oc3ccccc3)cc2)nn2c1NCC[C@H]2C1CCN(CC2CCN(C(=O)N3CCC(N4CCN(c5ccc6c(c5)CN(C5CCC(=O)NC5=O)C6=O)CC4)CC3)CC2)CC1 (stereo partly drawn) [Compound 404, (7S)-7-(1-((1-(4-(4-(2-(2,6-dioxopiperidin-3-yl)-1-oxoisoindolin-5-yl)piperazin-1-yl)piperidine-1-carbonyl)piperidin-4-yl)methyl)piperidin-4-yl)-2-(4-phenoxyphenyl)-4,5,6,7-tetrahydropyrazolo[1,5-a]pyrimidine-3-carboxamide] | < 0.01 | > 90 | – | – | < 1 | < 1
NC(=O)c1c(-c2ccc(Oc3ccccc3)cc2)nn2c1NCCC2C1CCN(C2CCN(C(=O)N3CCC(CN4CCC(c5ccc6c(c5)CN(C5CCC(=O)NC5=O)C6=O)CC4)CC3)CC2)CC1 (stereo not drawn) [Compound 356, 7-(1′-(4-((4-(2-(2,6-dioxopiperidin-3-yl)-1-oxoisoindolin-5-yl)piperidin-1-yl)methyl)piperidine-1-carbonyl)-[1,4′-bipiperidin]-4-yl)-2-(4-phenoxyphenyl)-4,5,6,7-tetrahydropyrazolo[1,5-a]pyrimidine-3-carboxamide] | – | – | > 90 | < 0.01 | < 1 | 1 to 10
NC(=O)c1c(-c2ccc(Oc3ccccc3)cc2)nn2c1NCC[C@H]2C1CCN(C2CCN(C(=O)N3CCC(N4CCN(c5ccc6c(c5)CN(C5CCC(=O)NC5=O)C6=O)CC4)CC3)CC2)CC1 (stereo partly drawn) [Compound 382, (7S)-7-(1′-(4-(4-(2-(2,6-dioxopiperidin-3-yl)-1-oxoisoindolin-5-yl)piperazin-1-yl)piperidine-1-carbonyl)-[1,4′-bipiperidin]-4-yl)-2-(4-phenoxyphenyl)-4,5,6,7-tetrahydropyrazolo[1,5-a]pyrimidine-3-carboxamide] | – | – | > 90 | < 0.01 | < 1 | < 1
NC(=O)c1c(-c2ccc(Oc3ccccc3)cc2)nn2c1NCC[C@H]2C1CCN(C2CCN(C(=O)N3CCC(CN4CCC(c5ccc6c(c5)CN(C5CCC(=O)NC5=O)C6=O)CC4)CC3)CC2)CC1 (stereo partly drawn) [Compound 396, (7S)-7-(1′-(4-((4-(2-(2,6-dioxopiperidin-3-yl)-1-oxoisoindolin-5-yl)piperidin-1-yl)methyl)piperidine-1-carbonyl)-[1,4′-bipiperidin]-4-yl)-2-(4-phenoxyphenyl)-4,5,6,7-tetrahydropyrazolo[1,5-a]pyrimidine-3-carboxamide] | 0.01 to 0.05 | > 75 | – | – | 1 to 10 | > 10

Further lines, with some results ahead:

DC50 (BTK; [1]) [µM] | Dmax (BTK; [2]) [%] | Dmax (BTK) [%] | DC50 (BTK; BTK degradation) [µM] | Structure (SMILES) | IC50 (Mino cells) [µM] | IC50 (JeKo-1 cells) [µM]
0.01 to 0.05 | > 90 | – | – | Nc1ncnc2c1c(-c1ccc(Oc3ccccc3)cc1)nn2C1CCN(C[C@H]2CCN(CC3CCN(c4ccc5c(c4)CN(C4CCC(=O)NC4=O)C5=O)CC3)C2)CC1 (stereo partly drawn) [Compound 446a, 3-(5-(4-(((R)-3-((4-(4-amino-3-(4-phenoxyphenyl)-1H-pyrazolo[3,4-d]pyrimidin-1-yl)piperidin-1-yl)methyl)pyrrolidin-1-yl)methyl)piperidin-1-yl)-1-oxoisoindolin-2-yl)piperidine-2,6-dione] | 1 to 10 | 1 to 10
> 0.05 | > 75 | – | – | Nc1ncnc2c1c(-c1ccc(Oc3ccccc3)cc1)nn2C1CCN(C2CCN(CC3CCN(c4ccc(N5CCC(=O)NC5=O)cc4)CC3)CC2)CC1 [Compound 568, 1-(4-(4-((4-(4-amino-3-(4-phenoxyphenyl)-1H-pyrazolo[3,4-d]pyrimidin-1-yl)-[1,4′-bipiperidin]-1′-yl)methyl)piperidin-1-yl)phenyl)dihydropyrimidine-2,4(1H,3H)-dione] | 1 to 10 | 1 to 10
